Results reported in a melting point compilation (Tetko et al.; mined from patent text by program, amines drawn as free bases though some values may be those of a salt).

melting point	SMILES
81.6 to 83.6 °C	C[C@H]1C=CC(S(=O)(=O)c2ccccc2)=C[C@H](C)[C@H]1O[Si](C)(C)C(C)(C)C
181 to 182 °C	O=C1c2ccccc2C(=O)N1CCc1cn2ccccc2n1
247 to 249 °C	NC(=O)C1CCCc2c(C(=O)O)cccc21 (configuration not stated)
193 °C	O=C(Oc1ccccc1)OC1c2nccnc2C(=O)N1c1ccc(Cl)cn1 (configuration not stated)
> 270 °C	O=C(O)c1cnc2c3ccccc3ncn2c1=O
194 to 196 °C	COc1cc2c(cc1OC)C(C(=O)O)C(c1ccc(OCc3ccccc3)c(OCc3ccccc3)c1)N(C)C2=O (configuration not stated)
136 to 139 °C	CCCCOc1ccc(C(=O)Nc2ccc3cc(C(C)N4CCCC4)cnc3c2C)cc1 (configuration not stated)
274 to 276 °C	N#Cc1nc(C#N)c(C#N)nc1C#N
81 to 83 °C	CC(C)(CNC(=O)COCC(=O)O)SN=O
149 °C	CCOC(=O)C1=C(C)N2CCNC2=C(C(=O)OCC)C1c1cccc(C(=O)OCC)c1 (configuration not stated)
80 to 85 °C	c1cc(C2=NOC(C3CC3)(N3CCCC3)C2)ccn1 (configuration not stated)
201 °C	CNc1ncnc2c1ncn2/C=C/c1cc(NC(=O)c2cccc(C(F)(F)F)c2)ccc1C
139 to 141 °C	COC(=O)N[C@H](C(=O)NC(Cc1ccccc1)C(O)CNCC(O)[C@@H](Cc1ccc(OCCc2ccccn2)cc1)NC(=O)OC(C)(C)C)C(C)(C)C (relative stereo)
123 to 124 °C	ON=C1c2ccccc2CCC1Cc1ccccc1 (configuration not stated)
> 260 °C	COc1ccccc1C(CCNC(C)(C)C)c1cc(Cl)ccc1OC (configuration not stated)
234 to 235 °C	CCN1C(=O)C(=C2C=C(N3CCCC3)CC(C)(C)C2)SC1=S
96 to 102 °C	CCOC(=O)C(=CNc1ccc(F)c(Cl)c1)C(=O)c1ccccc1Cl
205 °C	CS(=O)(=O)N1CCN(c2ccc(O)cc2)CC1
267 to 269 °C	Cc1ccc(Nc2nc(-c3c(-c4ccccc4)noc3C)cs2)nc1
165 to 167 °C	CN(C)c1ccc2c(c1)NCC2
142 to 146 °C	CCCc1c(OCCC(=O)O)ccc(C(C)=O)c1O
> 230 °C	Cc1sc2c(Br)c3ccccc3c(-c3ccc(OS(=O)(=O)c4scc(C(=O)O)c4O)c(C4CCCC4)c3)c2c1C
128 to 131 °C	CCOC(=O)c1ncn(-c2nccs2)c1Cl
112 °C	CC(C)(C)OC(=O)N1CC[C@H](c2ccc3c(c2)OCO3)[C@@H](O)C1 (racemic)
267 to 268 °C	O=[N+]([O-])c1ccc(Cl)c(S)c1

melting point	SMILES
176 to 177 °C	O=c1[nH]c2cc(OCCN3CCC(Cc4ccccc4)CC3)ccc2o1
210 to 211 °C	COC(=O)c1cccc2c(C#N)c(OC)ccc12
134 to 138 °C	Cc1[nH]c(Cc2ccccc2)nc1CO
246 to 248 °C	COc1c(Br)c(O)c(Br)c2nc(-c3ccc(O)cc3)oc12
206 to 207 °C	CS(=O)(=O)c1ccc(-n2nc(C(F)(F)F)cc2-c2ccc(-c3nccs3)cc2)cc1
> 300 °C	O=c1[nH]c2cc(Cl)ccc2c(O)c1Sc1ccc([N+](=O)[O-])cc1
96.3 °C	CCOC(=O)c1ccc(SCCCC2CCN(c3ccc(Cl)nn3)CC2)cc1
136 to 141 °C	Cn1cc(C2=C(c3cccc(N4CCC(O)CC4)c3)C(=O)NC2=O)c2ccccc21
62 to 63 °C	CN(C/C=C/C#CC(C)(C)C)Cc1cccc(N(C)Cc2ccccc2)c1
80.2 to 102 °C	CCCCCN(CCC12CC3CC(CC(C3)C1)C2)C(=O)NCCCc1ccnc2ccccc12
185 to 186 °C	O=C(O)c1cccc(-c2ccc(F)c3cc(Cc4cc(F)cc(Cl)c4)sc23)c1
91 to 92 °C	CN(C)Cc1ccc(Cl)cc1C(=O)c1ccccc1F
132 to 134 °C	Cn1ccnc1C(=O)Nc1ccc(-n2nc(C(F)(F)F)cc2C2CC2)cc1
218 to 219 °C	CNC(=O)C(Cc1ccc(OC)cc1)NC(=O)C(CC(C)C)C(CC(=O)NCC(N)=O)SC(C)=O (configuration not stated)
138 to 139 °C	O=S(=O)(c1ccc(N2CCCCCC2)cc1)N1CC(O)CC1=S (configuration not stated)
132 to 135 °C	C[C@H](NC(=O)C1(C)Oc2cc([N+](=O)[O-])ccc2NC1=O)C(=O)N[C@H](CCC(=O)O)C(=O)O (some centres not stated)
133 to 142 °C	CN1CCC(C2(O)c3ccc(Cl)cc3Sc3ccc(F)cc32)CC1 (configuration not stated)
162 to 163 °C	CCCCCC(CC(=O)Nc1cc(C(N)=O)ccc1CCCC)c1ccc(C(O)C(C)C)cc1OC (configuration not stated)
215 to 218 °C	CCCOC(=O)c1c(-c2ccncc2)[nH]c(-c2ccncc2)c1C
191 to 194 °C	Cc1ccc(-c2sc(N)c(C(=O)c3ccc(Cl)cc3)c2CN(C2CCCCC2)C2CCCCC2)cc1
91 to 92 °C	CN(C)CCC(c1ccncc1)S(=O)(=O)c1ccc(Cl)cc1 (configuration not stated)
80 to 83 °C	CC(=NOCCC(=O)O)c1ccc(Cl)cc1
144 to 146 °C	CCOC(=O)c1ccc(NC(=O)c2ccc(OC)c(OC)c2)c2ccccc12
235 to 237 °C	Cc1cc2c(cc1C)SC(C(F)(F)F)C(C(=O)O)=C2 (configuration not stated)
121 °C	Cc1nc(C)c(Cl)c(NCc2nccc(SCCCSCC3CN(C)C(=O)O3)c2C)n1 (configuration not stated)

melting point	SMILES
133 to 134 °C	COc1ccccc1C(NCC(=O)Nc1c(C(C)C)cccc1C(C)C)c1ccccc1 (configuration not stated)
170 to 171 °C	CCN1C(=O)Cc2cc3ccccc3cc2S1(=O)=O
132 °C	C=CCn1c2c(c3ccccc31)C(=O)C(Cn1ccnc1C)CC2 (configuration not stated)
219 to 221 °C	Cc1cc(-c2nnc3cc(C(C)(C)C)c(OCc4cn(C)nn4)nn23)no1
211 to 212 °C	CCn1c(=O)sc2cc(N3C[C@H](C(N)=O)OC3=O)ccc21
287 to 288 °C	Cc1ccsc1C=Cc1nccn1C
255 to 257 °C	NCc1ccc(Nc2ncnc3[nH]cc(C(=O)c4ccccc4)c23)cc1
91 to 92 °C	CCS(=O)(=O)N1CCN(C(=O)OC2CCC3(CO3)C(C3(C)OC3CC=C(C)C)C2OC)CC1 (configuration not stated)
232 to 235 °C	CCn1nc(-c2sc(N)nc2-c2ccccc2)ccc1=O
177 to 180 °C	CCOC(=O)c1cn(CC)c2c(C)c(F)c(F)cc2c1=O
52 to 54 °C	CCC(CC)N1CCN(C(=O)Oc2ccc(OC)cc2)CC1
187 °C	CC(=O)NC(C(=O)O)C(c1ccc(F)cc1)c1ccc(F)cc1 (configuration not stated)
262 °C	O=C(O)c1ccc2cc(-c3ccc(CCCO)c(C45CC6CC(CC(C6)C4)C5)c3)ccc2c1
114 °C	CN1C[C@H](c2cnccn2)OC1=O
> 300 °C	Cc1cc2cc(P(=O)(O)O)c(=O)[nH]c2cc1C
140 to 144 °C	CC(CC(=O)Nc1cc(Cc2n[nH]c(=O)c3ccccc23)ccc1F)C(=O)O (configuration not stated)
168 to 172 °C	CN1CNS(=O)(=O)c2cc(O)ccc21
175 to 178 °C	COC(=O)c1ccc(OC)c2oc(/C=C\C(=O)O)cc12
44 to 47 °C	CCCCCCCCCCCCCCCC(=O)OC(COCc1ccc(OC)cc1)COC(=O)CCCCCCCCCCCNC(=O)OCc1ccccc1 (configuration not stated)
81 to 83 °C	COc1ccc(CCN2CCC(NC(=O)C34CC5CC(CC(C5)C3)C4)C2)cc1 (configuration not stated)
249 to 250 °C	Cc1c(C(=O)Nc2ccc(N3CCC(N4CCOCC4)CC3)c(C#N)c2)cnn1-c1ccc(Cl)cc1
150 to 152 °C	Nc1ccc2nc3c(nc2c1)CCCC3
113 to 114 °C	Cc1cc(CN2CCN(C(C)C)CC2)cc2c1Cc1c(-c3ccsc3)n[nH]c1-2
220 to 223 °C	CC12CCC(O)CC1=CCC1C2CCC2(C)C(n3ccnc3)=CCC12 (configuration not stated)
162 to 165 °C	COc1ccc(C(=O)O)cc1Oc1ccc(C(F)(F)F)cc1Cl

melting point	SMILES
206 to 207 °C	Cc1cccc2c1NC(=O)C2
145 to 146 °C	O=c1c(-c2ccc(F)cc2)c(-c2ccc(SC(F)(F)F)cc2)cnn1Cc1ccccc1
137 to 139 °C	O=C(c1ccccc1)N1CCN2c3ccccc3Cn3cccc3C2C1 (configuration not stated)
78 to 81 °C	COc1ccc(C(O)(Cc2ccncc2)c2ccccc2)c2c1OC(C)(C)C2 (configuration not stated)
214 °C	CC(CS(=O)(=O)c1ccccc1)C1CCC2C3CC=C4CC(O)CC(O)C4(C)C3CCC12C (configuration not stated)
124 to 126 °C	C#Cc1ccc2ccc(C#C)cc2c1
189 to 190 °C	O=C(Nc1c(C(O)(C(F)(F)F)C(F)(F)F)ccc2ccccc12)c1ccc(I)cc1
116 to 118 °C	COC(=O)C(=Cc1ccc2c(c1)OCO2)C(=O)c1cccc(OCc2ccccc2)c1
168 to 171 °C	CC(C)(C)NS(=O)(=O)c1cc([N+](=O)[O-])ccc1Cl
80 to 81.5 °C	COc1ccc2c(OC)c(C(C)C)cc(OC)c2c1
94.5 °C	COc1ccc(N2CCN(N=O)CC2)cc1
254 to 255 °C	Oc1cc(CN/C=C2\CN=Cc3ccc(I)cc32)ccc1OC(F)F
70 °C	CCCC1(O)CSC(=S)N1c1cccc(C)n1 (configuration not stated)
170 to 174 °C	Cc1cc2cc(CN3CCCCCC3)cnc2cc1NC(=O)c1ccc(-c2ccc(F)cc2)cc1
57 to 58.5 °C	CCOC(=O)C(Oc1ccc2ccccc2c1)C(=O)OCC
73.8 to 77 °C	CCOC(=O)CS(=O)CCNC(=O)OCC (configuration not stated)
148 to 149 °C	Cc1ccc(N2CCN(Cc3ccc4c(c3)NCCN4)CC2)cc1C
128 to 132 °C	CC(=O)N[C@@H](Cc1ccc(-c2cc3ccccc3c3ccccc23)cc1)C(=O)O
152 to 153 °C	COc1c(C)cc(NC(C)=O)c(Br)c1C
128 to 134 °C	CC(C)(C)OC(=O)N1CCC=C(c2ccnc(C(=O)N(O)Cc3ccccc3)c2)C1
167 to 169 °C	COC(=O)c1ccc(-n2ccc(C)n2)cc1OC
195 to 197 °C	C=CC=Cc1cc(Oc2cnc(N)nc2N)c(I)cc1C
119 to 121 °C	O=C(NC1CCN(CCc2ccccc2)C1)C12CC3CC(CC(C3)C1)C2 (configuration not stated)

SMILES	melting point
Clc1c(NC2=NCCN2)ccc2nsnc12	232 to 235 °C
O=[N+]([O-])c1ccc2c(c1)OP(=O)(N(CCCl)CCCl)NC2 (configuration not stated)	123 to 126 °C
CN1C2CCC1CN(c1ccc(-c3ccccc3)cn1)C2	110 °C
CC(C)(C)NC(=O)c1nn(-c2ccc(F)cc2)c2c1C1CCC2CC1	190 to 193 °C
